Laboratory results as given in patent publication US11866450B2, “Modulators of Cystic Fibrosis Transmembrane Conductance regulator, pharmaceutical compositions, methods of treatment, and process for making the modulators” (priority 2018, dated 2024).

Molecular target: CFTR-mediated chloride transport (Homo sapiens, UniProt P13569)
Format: cell-based
Conditions: enteroid cells incubated with test compound 18-24 hours, acute 10 μM forskolin and 300 nM Compound III; for Max. Activity: % of chloride transport with 3 μM Compound A, 3 μM Compound II and 300 nM acute Compound III triple combination control
How it was run: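 Human intestinal enteroid cells incubated with compound 18–24 h at 37° C., then membrane potential dye (FLIPR) read 15 min after chloride-free stimulation with 10 μM forskolin, 100 μM IBMX and 300 nM Compound III. AUC expressed as % of triple-combination control (3 μM Compound A, 3 μM Compound II, 300 nM Compound III).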

CFTR-mediated chloride transport, sequence (P13569 whole entry, looked up): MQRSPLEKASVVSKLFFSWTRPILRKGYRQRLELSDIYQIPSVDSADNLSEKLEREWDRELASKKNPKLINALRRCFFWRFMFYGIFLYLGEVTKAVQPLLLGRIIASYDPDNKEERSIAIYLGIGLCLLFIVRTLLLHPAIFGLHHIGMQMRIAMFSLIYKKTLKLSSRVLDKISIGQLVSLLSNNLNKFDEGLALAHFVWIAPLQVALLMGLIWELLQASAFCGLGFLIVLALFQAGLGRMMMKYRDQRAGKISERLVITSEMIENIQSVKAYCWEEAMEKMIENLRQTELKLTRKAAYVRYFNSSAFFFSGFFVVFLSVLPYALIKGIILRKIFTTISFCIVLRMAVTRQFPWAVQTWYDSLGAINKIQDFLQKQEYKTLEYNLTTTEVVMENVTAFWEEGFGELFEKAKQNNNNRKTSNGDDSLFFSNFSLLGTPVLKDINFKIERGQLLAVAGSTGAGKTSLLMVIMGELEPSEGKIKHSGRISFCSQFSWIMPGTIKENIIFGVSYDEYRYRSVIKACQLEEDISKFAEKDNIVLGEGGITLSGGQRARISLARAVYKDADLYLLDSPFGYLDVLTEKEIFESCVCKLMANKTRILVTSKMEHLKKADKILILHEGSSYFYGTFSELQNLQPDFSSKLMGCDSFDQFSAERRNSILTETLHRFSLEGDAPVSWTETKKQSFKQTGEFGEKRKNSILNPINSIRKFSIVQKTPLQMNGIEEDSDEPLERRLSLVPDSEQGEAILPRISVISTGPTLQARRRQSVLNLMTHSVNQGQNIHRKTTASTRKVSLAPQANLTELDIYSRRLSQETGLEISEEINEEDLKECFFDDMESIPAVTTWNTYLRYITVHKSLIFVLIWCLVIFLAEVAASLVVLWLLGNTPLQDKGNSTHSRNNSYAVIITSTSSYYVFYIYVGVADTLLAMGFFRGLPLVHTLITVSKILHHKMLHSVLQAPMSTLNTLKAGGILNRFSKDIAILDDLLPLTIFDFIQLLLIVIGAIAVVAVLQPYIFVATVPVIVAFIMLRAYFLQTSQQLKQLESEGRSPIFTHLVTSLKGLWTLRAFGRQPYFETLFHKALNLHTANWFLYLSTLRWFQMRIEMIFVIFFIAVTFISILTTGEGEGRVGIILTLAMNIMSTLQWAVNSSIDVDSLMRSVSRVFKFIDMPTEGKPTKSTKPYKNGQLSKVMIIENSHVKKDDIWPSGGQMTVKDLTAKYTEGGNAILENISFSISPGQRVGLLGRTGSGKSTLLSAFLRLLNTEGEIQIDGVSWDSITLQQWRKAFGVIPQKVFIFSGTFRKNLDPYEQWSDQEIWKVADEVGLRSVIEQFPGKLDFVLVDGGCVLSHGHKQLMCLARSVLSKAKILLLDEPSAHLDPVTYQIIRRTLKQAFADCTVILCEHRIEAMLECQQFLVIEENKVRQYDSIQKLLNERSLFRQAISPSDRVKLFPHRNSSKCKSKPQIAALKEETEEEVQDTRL

SMILES	EC50 [µM]	Max. Activity
CC1(C)C[C@H]2CCCNc3cccc(n3)S(=N)(=O)NC(=O)c3ccc(-n4ccc(OCCC5(C(F)(F)F)CC5)n4)nc3N1C2 (single isomer, unassigned) [Compound 272, 2-imino-12,12-dimethyl-8-(3-{2-[1-(trifluoromethyl)cyclopropyl]ethoxy}-1H-pyrazol-1-yl)-2λ^6-thia-3,9,11,18,23-pentaazatetracyclo[17.3.1.111,14.05,10]tetracosa-1(23),5,7,9,19,21-hexaene-2,4-dione]	> 3	+ (+ is <30%)
CC1(C)C[C@H]2CCCCn3ccc(n3)S(=O)(=O)NC(=O)c3ccc(-n4ccc(OCCCC5(C(F)(F)F)CC5)n4)nc3N1C2 (single isomer, unassigned) [Compound 276, 21,21-dimethyl-4-(3-{3-[1-(trifluoromethyl)cyclopropyl]propoxy}-1H-pyrazol-1-yl)-10λ^6-thia-1,3,9,14,23-pentaazatetracyclo[17.2.1.111,14.02,7]tricosa-2,4,6,11(23),12-pentaene-8,10,10-trione]	< 1	++ (++ is 30-60%)
CC1(C)C[C@H]2CCCCn3ccc(n3)S(=O)(=O)NC(=O)c3ccc(-n4ccc(OCCCC5(C(F)(F)F)CC5)n4)nc3N1C2 (single isomer, unassigned) [Compound 277, 21,21-dimethyl-4-(3-{3-[1-(trifluoromethyl)cyclopropyl]propoxy}-1H-pyrazol-1-yl)-10λ^6-thia-1,3,9,14,23-pentaazatetracyclo[17.2.1.111,14.02,7]tricosa-2,4,6,11(23),12-pentaene-8,10,10-trione]	> 3	+ (+ is <30%)
CC1(C)C[C@H]2CCn3ccc(n3)S(=O)(=O)NC(=O)c3ccc(-n4ccc(OCCCC5(C(F)(F)F)CC5)n4)nc3N1C2 (single isomer, unassigned) [Compound 278, 19,19-dimethyl-4-(3-{3-[1-(trifluoromethyl)cyclopropyl]propoxy}-1H-pyrazol-1-yl)-10λ^6-thia-1,3,9,14,21-pentaazatetracyclo[15.2.1.111,14.02,7]henicosa-2,4,6,11(21),12-pentaene-8,10,10-trione]	> 3	+ (+ is <30%)
CC1(C)C[C@H]2CCn3ccc(n3)S(=O)(=O)NC(=O)c3ccc(-n4ccc(OCCCC5(C(F)(F)F)CC5)n4)nc3N1C2 (single isomer, unassigned) [Compound 279, 19,19-dimethyl-4-(3-{3-[1-(trifluoromethyl)cyclopropyl]propoxy}-1H-pyrazol-1-yl)-10λ^6-thia-1,3,9,14,21-pentaazatetracyclo[15.2.1.111,14.02,7]henicosa-2,4,6,11(21),12-pentaene-8,10,10-trione]	< 1	++ (++ is 30-60%)
CC1(C)C[C@@H]2CCCNc3cccc(n3)S(=O)(=O)NC(=O)c3ccc(-n4ccc(OC[C@@H](O)CC5(C(F)(F)F)CC5)n4)nc3N1C2 (single isomer, unassigned) [Compound 283]	< 1	+++ (+++ is >60%)
CC1(C)C[C@@H]2CCCNc3cccc(n3)S(=O)(=O)NC(=O)c3ccc(-n4ccc(OC[C@@H](O)CC5(C(F)(F)F)CC5)n4)nc3N1C2 (single isomer, unassigned) [Compound 284]	< 1	+++ (+++ is >60%)
Cc1c2cnn1CCCC1CN(c3nc(-n4ccc(OCC(C)(C)C(F)(F)F)n4)ccc3C(=O)NS2(=O)=O)C(C)(C)C1 (single isomer, unassigned) [Compound 285, 20,20,22-trimethyl-4-[3-(3,3,3-trifluoro-2,2-dimethylpropoxy)-1H-pyrazol-1-yl]-10λ^6-thia-1,3,9,13,14-pentaazatetracyclo[16.2.1.111,14.02,7]docosa-2,4,6,11(22),12-pentaene-8,10,10-trione]	< 1	+ (+ is <30%)
Cc1c2cnn1CCCC1CN(c3nc(-n4ccc(OCC(C)(C)C(F)(F)F)n4)ccc3C(=O)NS2(=O)=O)C(C)(C)C1 (single isomer, unassigned) [Compound 286, 20,20,22-trimethyl-4-[3-(3,3,3-trifluoro-2,2-dimethylpropoxy)-1H-pyrazol-1-yl]-10λ^6-thia-1,3,9,13,14-pentaazatetracyclo[16.2.1.111,14.02,7]docosa-2,4,6,11(22),12-pentaene-8,10,10-trione]	< 1	+ (+ is <30%)
Cc1c2cnn1CCCC1CN(c3nc(-n4ccc(OCC(C)(C)C(F)(F)F)n4)ccc3C(=O)NS2(=O)=O)C(C)(C)C1 (single isomer, unassigned) [Compound 288, 20,20,22-trimethyl-4-[3-(3,3,3-trifluoro-2,2-dimethylpropoxy)-1H-pyrazol-1-yl]-10λ^6-thia-1,3,9,13,14-pentaazatetracyclo[16.2.1.111,14.02,7]docosa-2,4,6,11(22),12-pentaene-8,10,10-trione]	1 to 3	+ (+ is <30%)
Cc1c2cnn1CCCC1CN(c3nc(-n4ccc(OCC(C)(C)C(F)(F)F)n4)ccc3C(=O)NS2(=O)=O)C(C)(C)C1 (single isomer, unassigned) [Compound 289, 20,20,22-Trimethyl-4-[3-(3,3,3-trifluoro-2,2-dimethylpropoxy)-1H-pyrazol-1-yl]-10λ^6-thia-1,3,9,13,14-pentaazatetracyclo[16.2.1.111,14.02,7]docosa-2,4,6,11(22),12-pentaene-8,10,10-trione]	< 1	++ (++ is 30-60%)
Cc1nn2cc1S(=O)(=O)NC(=O)c1ccc(-n3ccc(OCC(C)(C)C(F)(F)F)n3)nc1N1C[C@H](CCC2)CC1(C)C (single isomer, unassigned) [Compound 290, 12,20,20-trimethyl-4-[3-(3,3,3-trifluoro-2,2-dimethylpropoxy)-1H-pyrazol-1-yl]-10λ^6-thia-1,3,9,13,14-pentaazatetracyclo[16.2.1.111,14.02,7]docosa-2,4,6,11(22),12-pentaene-8,10,10-trione]	> 3	+ (+ is <30%)
Cc1nn2cc1S(=O)(=O)NC(=O)c1ccc(-n3ccc(OCC(C)(C)C(F)(F)F)n3)nc1N1C[C@H](CCC2)CC1(C)C (single isomer, unassigned) [Compound 291, 12,20,20-trimethyl-4-[3-(3,3,3-trifluoro-2,2-dimethylpropoxy)-1H-pyrazol-1-yl]-10λ^6-thia-1,3,9,13,14-pentaazatetracyclo[16.2.1.111,14.02,7]docosa-2,4,6,11(22),12-pentaene-8,10,10-trione]	< 1	++ (++ is 30-60%)
CC1(C)C[C@@H]2CCCNc3cccc(n3)S(=O)(=O)NC(=O)c3ccc(-n4ccc(OC[C@@H](O)C5C6(CC6)C56CC6)n4)nc3N1C2 (single isomer, unassigned) [Compound 293]	< 1	+++ (+++ is >60%)
CC1(C)C[C@@H]2CCCNc3cccc(n3)S(=O)(=O)NC(=O)c3ccc(-n4ccc(OC[C@@H](O)C5C6(CC6)C56CC6)n4)nc3N1C2 (single isomer, unassigned) [Compound 294]	1 to 3	+++ (+++ is >60%)
CC1(C)C[C@@H]2CCCNc3cccc(n3)S(=O)(=O)NC(=O)c3ccc(-n4ccc(OCC[C@@H](O)C5(C(F)(F)F)CC5)n4)nc3N1C2 (single isomer, unassigned) [Compound 296]	< 1	+++ (+++ is >60%)
CC1(C)C[C@@H]2CCCNc3cccc(n3)S(=O)(=O)NC(=O)c3ccc(-n4ccc(OCC[C@@H](O)C5(C(F)(F)F)CC5)n4)nc3N1C2 (single isomer, unassigned) [Compound 297]	< 1	+++ (+++ is >60%)
CC1(C)C[C@@H]2CN1c1nc(-n3ccc(OCCC4(C(F)(F)F)CC4)n3)ccc1C(=O)NS(=O)(=O)c1ccn(n1)CCO2 (single isomer, unassigned) [Compound 302, 20,20-Dimethyl-4-(3-{2-[1-(trifluoromethyl)cyclopropyl]ethoxy}-1H-pyrazol-1-yl)-17-oxa-10λ^6-thia-1,3,9,14,22-pentaazatetracyclo[16.2.1.111,14.02,7]docosa-2(7),3,5,11(22),12-pentaene-8,10,10-trione]	> 3	+ (+ is <30%)
CC1(C)C[C@@H]2CN1c1nc(-n3ccc(OCCC4C5(CC5)C45CC5)n3)ccc1C(=O)NS(=O)(=O)c1cccc(n1)NCC(F)(F)C2 (single isomer, unassigned) [Compound 304, 8-[3-(2-{dispiro[2.0.2.1]heptan-7-yl}ethoxy)-1H-pyrazol-1-yl]-16,16-difluoro-12,12-dimethyl-2λ^6-thia-3,9,11,18,23-pentaazatetracyclo[17.3.1.111,14.05,10]tetracosa-1(22),5,7,9,19(23),20-hexaene-2,2,4-trione]	< 1	+++ (+++ is >60%)
CC1(C)C[C@@H]2CN1c1nc(-n3ccc(OCCC4C5(CC5)C45CC5)n3)ccc1C(=O)NS(=O)(=O)c1cccc(n1)NCC(F)(F)C2 (single isomer, unassigned) [Compound 305, 8-[3-(2-{Dispiro[2.0.2.1]heptan-7-yl}ethoxy)-1H-pyrazol-1-yl]-16,16-difluoro-12,12-dimethyl-2λ^6-thia-3,9,11,18,23-pentaazatetracyclo[17.3.1.111,14.05,10]tetracosa-1(22),5,7,9,19(23),20-hexaene-2,2,4-trione]	> 3	+ (+ is <30%)
CC1(C)C[C@H]2C[C@@H](F)CNc3cccc(n3)S(=O)(=O)NC(=O)c3ccc(-n4ccc(OCCC5C6(CC6)C56CC6)n4)nc3N1C2 (single isomer, unassigned) [Compound 306, 8-[3-(2-{dispiro[2.0.2.1]heptan-7-yl}ethoxy)-1H-pyrazol-1-yl]-16-fluoro-12,12-dimethyl-2λ^6-thia-3,9,11,18,23-pentaazatetracyclo[17.3.1.111,14.05,10]tetracosa-1(22),5,7,9,19(23),20-hexaene-2,2,4-trione]	< 1	+++ (+++ is >60%)
